Measured values: patent US6677302B2, “Compositions and methods for the treatment of viral disorders” (The Trustees of Boston University, priority 1996, dated 2004)
Read-outs that look alike come from different tables or passages of the source. Marks after values point to notes of the source that are not given here.

Legend:
CaCo (colon cancer) = experiment: Survival fraction after 72 hours exposure (MTT assay); assay type: cell-based, human; details: 72 hour
Experimental: (§1) Growth inhibition was measured by the MTT assay. […] PC-3=prostate cancer; A549=non-small cell cancer; OvCar=ovarian cancer; CaCo=colon cancer; MCF-7=breast cancer; and SW900=non-small cell lung cancer.

[1] = system: A549 (non-small cell cancer); experiment: as above; assay type: cell-based, human
Experimental: as §1

K562 = experiment: DNA fragmentation by flow cytometry; assay type: cell-based, human; details: FIGS. 4 and 5
Excerpt: It has been shown that sodium butyrate can induce apoptosis in human tumors or tumor cell lines (L. A. Noorduyn et al., Histopathology 21:59, 1992).

[2] = system: SW900 (non-small cell lung cancer); experiment: Survival fraction after 72 hours exposure (MTT assay); assay type: cell-based, human
Experimental: (§2) Growth inhibition was measured by the MTT assay. Survival fraction is calculated from at least 3 experiments, and differences in survival fraction are statistically significant P<0.05, using the Paired Two-Sample For Means T-Test. […] PC-3=prostate cancer; A549=non-small cell cancer; OvCar=ovarian cancer; CaCo=colon cancer; MCF-7=breast cancer; and SW900=non-small cell lung cancer.

OvCar (ovarian cancer) = experiment: as above; assay type: cell-based, human
Experimental: as §2

PC-3 (prostate cancer) = experiment: as above; assay type: cell-based, human
Experimental: as §2

MCF-7 (breast cancer) = experiment: as above; assay type: cell-based, human
Experimental: as §2

[3] = system: post-transplant EBV-induced lymphomas; experiment: Compassionate treatment of post-transplant EBV-induced lymphomas; assay type: in vivo, human; details: patient one; GCV for 2 weeks before arginine butyrate
Excerpt: Finally, two patients with post-transplant EBV-induced lymphomas have been treated on a compassionate basis with IRB approval. Each patient is summarized below.
Patient one was a person, 2 months post lung transplant. They were receiving cyclosporin to prevent impending rejection. They developed massive lymphadenopathy in mediastinum and hilum, with progressive respiratory failure. They were biopsy positive for EBV, and the tumor cells were monoclonal and of donor origin.
They had been off all therapy, except ganciclovir, for 3 weeks when they started arginine butyrate at 1,000 mg/kg/day. […] They eventually died from Aspergillus infection.
The second patient was a person, 4 months post-allogeneic bone marrow transplant for leukemia. They were receiving cyclosporin to prevent rejection. They developed cervical, mediastinal and abdominal lymphadenopathy, with brain metastases. A biopsy was positive for EBV and tumor cells were monoclonal confirming the diagnosis of LPD.
They had been treated with and had no response to XRT, CHOP, or α-IFN plus gamma globulin. They had been off all therapy for 2 weeks and was cachectic, too weak to ambulate, paraplegic, in constant pain and had been admitted for terminal care, when they started arginine butyrate at 1,000 mg/kg/day and ganciclovir.

[4] = system: EBV+ and EBV− cell lines (X50-7, Akata, HPB-ALL, Nalm-6); experiment: Growth of EBV+ and EBV− cell lines; assay type: cell-based, human; details: both EBV+ and EBV− cell lines
Excerpt: In some experiments sodium was used instead of arginine to neutralize butyric acid. […] Cell lines used were X50-7, a latent EBV+ B-cell lymphoma; Akata, a producer EBV+ Burkitt's lymphoma; HPB-ALL, a T-cell line; and Nalm-6, an EBV− B-cell line. Growth curves for X50-7 cells in different concentrations of sodium butyrate are shown in FIG. 8b and the growth curves for HPB-ALL cells in different concentrations of sodium butyrate are shown in FIG. 8c.

[5] = system: Fibroblasts (mouse BALB/c-3T3); experiment: MIC on cell proliferation, 7 days in culture; assay type: cell-based
Experimental: (§3) The ability of arginine butyrate to induce differentiation has been evaluated and is measured by inhibition of growth, in some of the neoplastic cell types previously reported to be sensitive to (sodium) butyric acid, and found arginine butyrate to be as potent as butyric acid. We have also extended that work to additional cell types and found Arginine Butyrate to induce differentiation in these new cell types. Table 1 lists the cell types tested and the minimum inhibitory concentration (MIC) of sodium butyrate (NaB) and arginine butyrate (ArgB) on these cell lines. The MIC is the lowest dose that prevents all growth over the 7 days that the cells are maintained in culture, that is the minimum dose that prevents an increase in cell number. […] The […] of ArgB and NaB were equivalent on all cell lines tested.

[6] = system: Fibroblasts (normal human); experiment: MIC on cell proliferation, 7 days in culture; assay type: cell-based; details: lowest dose that prevents all growth over 7 days
Experimental: as §3

[7] = children with acute myelogenous leukemia or neuroblastoma; 0.5-1.5 g/kg/day for 14 days and 10 g/kg/day IV; cited from earlier work
Erythroleukemia (K562) = experiment: MIC on cell proliferation, 7 days in culture; assay type: cell-based, human
Experimental: as §3

Osteosarcoma (HOS) = experiment: MIC on cell proliferation, 7 days in culture; assay type: cell-based, human
Experimental: as §3

Gastric Carcinoma (AGS) = experiment: MIC on cell proliferation, 7 days in culture; assay type: cell-based, human
Experimental: as §3

Rhabdomyosarcoma = experiment: MIC on cell proliferation, 7 days in culture; assay type: cell-based, human
Experimental: as §3

Myeloid Leukemia (HL60) = experiment: MIC on cell proliferation, 7 days in culture; assay type: cell-based, human
Experimental: as §3

[8] = system: Colonic Adenocarcinoma (HT29); experiment: MIC on cell proliferation, 7 days in culture; assay type: cell-based, human
Experimental: as §3

Choriocarcinoma (JAR) = experiment: MIC on cell proliferation, 7 days in culture; assay type: cell-based, human
Experimental: as §3

[9] = Clinical toxicity in patients; assay type: in vivo, human; details: adults; IV infusion of similar doses
Experimental: Clinical experience with butyrates have been performed in children with acute myelogenous leukemia in Israel, and in children with neuroblastoma (K. Prasad, Life Sci. 27:1351-58, 1980). […] Eleven pediatric patients and twelve adults with β-hemoglobinopathies were treated with IV arginine butyrate at a starting dose of 500 mg/kg/day for 2-7 weeks. If no side effects were noted, the rate was increased by 250 mg/kg/day to a final rate of 1500 mg/kg/day in 4 patients, and 2000 mg/kg/day in 2 patients. […] This rise in BUN returned to normal within 12 hours of discontinuation of drug, and is thought to be secondary to effect of arginine upon ureagenesis. […] Peak serum levels of butyrate ranged between 0.04-0.05 mM, and butyrate was not detectable 15 minutes after infusion was discontinued. Plasma arginine levels were also rapidly cleared, with a T1/2 of 15 minutes, and baseline arginine levels were reached within 12 hours after discontinuation of infusion.
Three patients with refractory neoplasms (breast, melanoma, adenocarcinoma, of unknown primary) have been enrolled and completed 1-2 cycles of arginine butyrate as a dose of 500 mg/kg/day over 6-8 hours for 10 days.
Three patients (with breast cancer, bowel cancer or Hodgkins disease) have completed two cycles of arginine butyrate at a dose of 750 mg/kg/day for 10 days. […] Otherwise, there was no other objective measures of organ progressed after treatment was topped. […] There was a further resolution of the disease during the second cycle. Disease progression was noted one month after second cycle was completed. At 1000 mg/kg/day, 3 patients have been enrolled on study.
An inter-group dose-escalation study is being conducted in patients with refractory malignancies. There are 3 patients per group with the dose levels starting at 500 mg/kg/day, and increasing by 250 mg/kg/day per group, if toxicity permits. Doses are given by 8 hour IV infusion, daily, for 5 days times 2 weeks, with weekends off, for a total of 10 days of treatment per cycle.

breast and colon lines = experiment: Enhancement of cytotoxicity of other chemotherapeutic agents by arginine butyrate; details: evaluated with arginine butyrate
Excerpt: Other chemotherapeutic agents with non-overlapping mechanisms of antiproliferative activity such as 5-fluorouracil, taxol and interferon alpha have been evaluated with arginine butyrate.

[10] = Table 4, 0.1 A (0.1 μg/ml), 72 hour
[11] = Table 4, 0.5 A (0.5 μg/ml), 72 hour
[12] = Table 3, 1 CP (1.0 μg/ml), 72 hours
[13] = Table 3, 2 CP (2.0 μg/ml), 72 hours

COc1cccc2c1C(=O)c1c(O)c3c(c(O)c1C2=O)C[C@@](O)(C(=O)CO)C[C@@H]3O[C@H]1C[C@H](N)[C@H](O)[C@H](C)O1 [A, adriamycin]
Survival Fraction (CaCo (colon cancer); Table 4, 0.1 A (0.1 μg/ml)): 0.68*
Survival Fraction (CaCo (colon cancer); Table 4, 0.5 A (0.5 μg/ml)): 0.62*
Survival Fraction [1, 10]: 0.59*
Survival Fraction [1, 11]: 0.59*
apoptotic activity on addition of arginine butyrate (K562): increased their apoptotic activity
Survival Fraction ([2]; Table 4, 0.1 A (0.1 μg/ml)): 0.82*
Survival Fraction ([2]; Table 4, 0.5 A (0.5 μg/ml)): 0.76*
Survival Fraction (OvCar (ovarian cancer); [10]): 0.83*
Survival Fraction (OvCar (ovarian cancer); [11]): 0.81*
Survival Fraction (PC-3 (prostate cancer); [10]): 0.72*
Survival Fraction (PC-3 (prostate cancer); [11]): 0.68*
Survival Fraction (MCF-7 (breast cancer); Table 4, 0.1 A (0.1 μg/ml)): 0.73*
Survival Fraction (MCF-7 (breast cancer); Table 4, 0.5 A (0.5 μg/ml)): 0.69*

N.N.[Cl][Pt][Cl] [CP, cisplatin]
Survival Fraction [1, 12]: 0.77*
Survival Fraction [1, 13]: 0.54*
Survival Fraction (OvCar (ovarian cancer); [12]): 0.91
Survival Fraction (OvCar (ovarian cancer); [13]): 0.45*
Survival Fraction (PC-3 (prostate cancer); [12]): 0.92
Survival Fraction (PC-3 (prostate cancer); [13]): 0.49*

Nc1nc(O)c2ncn(COC(CO)CO)c2n1 [GCV, ganciclovir, reference compound]
tumor response [3]: showed no response
levels generally cytocidal [4]: above 30 μM

CCCC(=O)[O-].[Na+] [NaB, sodium butyrate, reference compound]
MIC [5]: >5,000 μM
MIC [6]: >5,000 μM
toxic side effects [7]: without toxic side effects
MIC (Erythroleukemia (K562)): >5,000 μM
MIC (Osteosarcoma (HOS)): 312 µM
MIC (Gastric Carcinoma (AGS)): 2,000 μM
MIC (Rhabdomyosarcoma): 156 µM
MIC (Myeloid Leukemia (HL60)): 78 µM
MIC [8]: 2,000 μM
MIC (Choriocarcinoma (JAR)): 156 µM
toxic side effects [9]: no toxic side effects

CC[C@@]1(O)C(=O)OCc2c1cc1n(c2=O)Cc2cc3ccccc3nc2-1 [camptothecin]
apoptotic activity on addition of arginine butyrate (K562): increased their apoptotic activity

C[C@@H]1C[C@@H]([C@H](O)CC2CC(=O)NC(=O)C2)C(=O)[C@@H](C)C1 [cyclohexamide]
apoptotic activity on addition of arginine butyrate (K562): increased their apoptotic activity

O=P1(N(CCCl)CCCl)NCCCO1 (stereo not shown) [cyclophosphamide]
apoptotic activity on addition of arginine butyrate (K562): Lack of enhancement

COc1cc([C@@H]2c3cc4c(cc3[C@@H](O[C@@H]3O[C@@H]5CO[C@@H](C)O[C@H]5[C@H](O)[C@H]3O)[C@H]3COC(=O)[C@H]23)OCO4)cc(OC)c1O [etoposide]
apoptotic activity on addition of arginine butyrate (K562): increased their apoptotic activity

CC(=O)O[C@H]1C(=O)[C@@]2(C)[C@H]([C@H](OC(=O)c3ccccc3)[C@]3(O)C[C@H](OC(=O)[C@H](O)[C@@H](NC(=O)c4ccccc4)c4ccccc4)C(C)=C1C3(C)C)[C@]1(OC(C)=O)CO[C@@H]1C[C@@H]2O [taxol]
concentration of agent at which enhancement of cytotoxicity was observed (breast and colon lines): exceeding 10 mM
